US20260184662A1, “COMPOSITE OF ACID AND SALT, AND PREPARATION METHOD THEREFOR” (NANJING NUTRABUILDING BIO-TECH CO., LTD., priority 2022, published 2026)
Where two headings read alike, the source gives them in different places.

How the values were obtained:
[1] = Determination of moisture contents with KF moisture meter at different time points; format: physicochemical; conditions: temperature 23° C., humidity 92.5%
Text: (§1) For R-3-hydroxybutyric acid, potassium R-3-hydroxybutyrate, mixture of R-3-hydroxybutyric acid and potassium R-3-hydroxybutyrate, and R-3-hydroxybutyric acid·potassium R-3-hydroxybutyrate complex of Example 1, under a certain condition, KF moisture meter was used to determine the moisture contents at different time points.
as §1, with “3-hydroxybutyric” for “R-3-hydroxybutyric”, “3-hydroxybutyrate,” for “R-3-hydroxybutyrate,”, “3-hydroxybutyrate” for “R-3-hydroxybutyrate”, “7,” for “1,”
as §1, with “S-3-hydroxybutyric” for “R-3-hydroxybutyric”, “S-3-hydroxybutyrate,” for “R-3-hydroxybutyrate,”, “S-3-hydroxybutyrate” for “R-3-hydroxybutyrate”, “13,” for “1,”
as §1, with “calcium” for “potassium”, “acid·calcium” for “acid·potassium”, “19,” for “1,”
(§2) For 3-hydroxybutyric acid, calcium 3-hydroxybutyrate, mixture of 3-hydroxybutyric acid and calcium 3-hydroxybutyrate, and 3-hydroxybutyric acid·calcium 3-hydroxybutyrate complex of Example 25, under a certain condition, KF moisture meter was used to determine the moisture contents at different time points.
as §2, with “S-3-hydroxybutyric” for “3-hydroxybutyric”, “S-3-hydroxybutyrate,” for “3-hydroxybutyrate,”, “S-3-hydroxybutyrate” for “3-hydroxybutyrate”, “31,” for “25,”
as §1, with “magnesium” for “potassium”, “acid·magnesium” for “acid·potassium”, “37,” for “1,”
as §2, with “magnesium” for “calcium”, “acid·magnesium 3-hydroxy butyrate” for “acid·calcium 3-hydroxybutyrate”, “43,” for “25,”
For S-3-hydroxybutyric acid, magnesium S-3-hydroxybutyrate, mixture of S-3-hydroxybutyric acid and magnesium S-3-hydroxybutyrate, and S-3-hydroxybutyric acid·magnesium S-3-hydroxybutyrate complex of Example 49, under a certain condition, KF moisture meter was used to determine the moisture contents at different time points.
(§3) For R-3-hydroxypentanoic acid, sodium R-3-hydroxypentanoate, mixture of R-3-hydroxypentanoic acid and sodium R-3-hydroxypentanoate, and R-3-hydroxypentanoic acid·sodium R-3-hydroxypentanoate complex of Example 55, under a certain condition, KF moisture meter was used to determine the moisture contents at different time points.
as §3, with “3-hydroxypentanoic” for “R-3-hydroxypentanoic”, “3-hydroxypentanoate,” for “R-3-hydroxypentanoate,”, “3-hydroxypentanoate” for “R-3-hydroxypentanoate”, “61,” for “55,”
as §3, with “S-3-hydroxypentanoic” for “R-3-hydroxypentanoic”, “S-3-hydroxypentanoate,” for “R-3-hydroxypentanoate,”, “S-3-hydroxypentanoate” for “R-3-hydroxypentanoate”, “67,” for “55,”

[2] = Stability of complexes at 30-80° C.; format: physicochemical
Text: For R-3-hydroxybutyric acid, potassium R-3-hydroxybutyrate, mixture of R-3-hydroxybutyric acid and potassium R-3-hydroxybutyrate, and R-3-hydroxybutyric acid·potassium R-3-hydroxybutyrate complex of Example 1, […]
For 3-hydroxybutyric acid, potassium 3-hydroxybutyrate, mixture of 3-hydroxybutyric acid and potassium 3-hydroxybutyrate, and 3-hydroxybutyric acid·potassium 3-hydroxybutyrate complex of Example 7, […]
For S-3-hydroxybutyric acid, potassium S-3-hydroxybutyrate, mixture of S-3-hydroxybutyric acid and potassium S-3-hydroxybutyrate, and S-3-hydroxybutyric acid·potassium S-3-hydroxybutyrate complex of Example 13, […]
For R-3-hydroxybutyric acid, calcium R-3-hydroxybutyrate, mixture of R-3-hydroxybutyric acid and calcium R-3-hydroxybutyrate, and R-3-hydroxybutyric acid·calcium R-3-hydroxybutyrate complex of Example 19, […]
For 3-hydroxybutyric acid, calcium 3-hydroxybutyrate, mixture of 3-hydroxybutyric acid and calcium 3-hydroxybutyrate, and 3-hydroxybutyric acid·calcium 3-hydroxybutyrate complex of Example 25, […]
For S-3-hydroxybutyric acid, calcium S-3-hydroxybutyrate, mixture of S-3-hydroxybutyric acid and calcium S-3-hydroxybutyrate, and S-3-hydroxybutyric acid·calcium S-3-hydroxybutyrate complex of Example 31, […]
For R-3-hydroxybutyric acid, magnesium R-3-hydroxybutyrate, mixture of R-3-hydroxybutyric acid and magnesium R-3-hydroxybutyrate, and R-3-hydroxybutyric acid·magnesium R-3-hydroxybutyrate complex of Example 37, […]
For 3-hydroxybutyric acid, magnesium 3-hydroxybutyrate, mixture of 3-hydroxybutyric acid and magnesium 3-hydroxybutyrate, and 3-hydroxybutyric acid·magnesium 3-hydroxybutyrate complex of Example 43, […]
For S-3-hydroxybutyric acid, magnesium S-3-hydroxybutyrate, mixture of S-3-hydroxybutyric acid and magnesium S-3-hydroxybutyrate, and S-3-hydroxybutyric acid·magnesium S-3-hydroxybutyrate complex of Example 49, […]
For R-3-hydroxypentanoic acid, sodium R-3-hydroxypentanoate, mixture of R-3-hydroxypentanoic acid and sodium R-3-hydroxypentanoate, and R-3-hydroxypentanoic acid·sodium R-3-hydroxypentanoate complex of Example 55, […]
For 3-hydroxypentanoic acid, sodium 3-hydroxypentanoate, mixture of 3-hydroxypentanoic acid and sodium 3-hydroxypentanoate, and 3-hydroxypentanoic acid·sodium 3-hydroxypentanoate complex of Example 61, […]
For S-3-hydroxypentanoic acid, sodium S-3-hydroxypentanoate, mixture of S-3-hydroxypentanoic acid and sodium S-3-hydroxypentanoate, and S-3-hydroxypentanoic acid·sodium S-3-hydroxypentanoate complex of Example 67, […]

Stability [2] | Structure (SMILES) | moisture content (%) ([1]; 30 min) | moisture content (%) ([1]; 1 h) | moisture content (%) ([1]; 2 h) | moisture content (%) ([1]; 4 h) | moisture content (%) ([1]; 6 h) | moisture content (%) ([1]; 7 h) | moisture content (%) ([1]; 11 h) | moisture content (%) ([1]; 22 h) | Stability ([2]; 30° C.) | Stability ([2]; 40° C.) | Stability ([2]; 50° C.) | Stability ([2]; 60° C.) | Stability ([2]; 80° C.)
– | CC(O)CC(=O)O (centres unmarked) [3-hydroxybutyric acid] | 1.32% | 2.37% | 4.15% | 6.59% | 9.68% | 10.71% | 17.33% | 33.51% | – | – | – | – | –
– | CC(O)CC(=O)O.CC(O)CC(=O)[O-].CC(O)CC(=O)[O-].[Ca+2] (centres unmarked) [3-hydroxybutyric acid·calcium 3-hydroxybutyrate] | 0.56% | 1.12% | 1.86% | 3.19% | 4.68% | 5.45% | 8.72% | 14.43% | unchanged | unchanged | unchanged | unchanged | melted
– | CC(O)CC(=O)O.CC(O)CC(=O)[O-].CC(O)CC(=O)[O-].[Mg+2] (centres unmarked) [3-hydroxybutyric acid·magnesium 3-hydroxybutyrate] | 0.56% | 0.97% | 1.82% | 3.26% | 4.62% | 5.57% | 8.75% | 14.68% | unchanged | unchanged | unchanged | Unchanged | melted
– | CC(O)CC(=O)O.CC(O)CC(=O)[O-].[K+] (centres unmarked) [3-hydroxybutyric acid·potassium 3-hydroxybutyrate] | 0.68% | 1.28% | 1.93% | 3.68% | 5.92% | 6.84% | 9.67% | 19.25% | unchanged | unchanged | Unchanged | unchanged | melted
– | CCC(O)CC(=O)O (centres unmarked) [3-hydroxypentanoic acid] | 1.10% | 1.98% | 3.46% | 5.49% | 8.07% | 8.93% | 14.44% | 27.93% | – | – | – | – | –
unchanged | CCC(O)CC(=O)O.CCC(O)CC(=O)[O-].[Na+] (centres unmarked) [3-hydroxypentanoic acid·sodium 3-hydroxypentanoate] | 0.51% | 0.98% | 1.71% | 2.82% | 4.16% | 4.60% | 7.28% | 14.69% | – | – | – | – | –
– | C[C@H](O)CC(=O)[O-].C[C@H](O)CC(=O)[O-].[Ca+2] [Calcium S-3-hydroxybutyrate, calcium S-3-hydroxybutyrate] | 0.88% | 1.92% | 2.25% | 4.18% | 5.24% | 6.25% | 10.34% | 17.55% | – | – | – | – | –
– | C[C@H](O)CC(=O)[O-].C[C@H](O)CC(=O)[O-].[Mg+2] [Magnesium S-3-hydroxybutyrate, magnesium S-3-hydroxybutyrate] | 0.88% | 1.28% | 2.43% | 4.22% | 6.37% | 8.24% | 12.35% | 18.54% | – | – | – | – | –
– | CC(O)CC(=O)[O-].[K+] (centres unmarked) [Potassium 3-hydroxybutyrate, potassium 3-hydroxybutyrate] | 1.14% | 1.93% | 3.22% | 4.98% | 7.77% | 8.34% | 16.82% | 32.86% | – | – | – | – | –
– | C[C@@H](O)CC(=O)[O-].[K+] [Potassium R-3-hydroxybutyrate, potassium R-3-hydroxybutyrate] | 1.04% | 1.91% | 3.19% | 4.93% | 7.65% | 8.24% | 16.72% | 32.68% | – | – | – | – | –
– | C[C@H](O)CC(=O)[O-].[K+] [Potassium S-3-hydroxybutyrate, potassium S-3-hydroxybutyrate] | 1.06% | 1.92% | 3.22% | 4.97% | 7.55% | 8.34% | 16.82% | 32.75% | – | – | – | – | –
– | C[C@@H](O)CC(=O)O [R-3-hydroxybutyric acid] | 1.13% | 2.25% | 3.96% | 6.46% | 9.52% | 10.56% | 17.22% | 33.34% | – | – | – | – | –
– | CC[C@@H](O)CC(=O)O [R-3-hydroxypentanoic acid] | 0.94% | 1.88% | 3.30% | 5.38% | 7.93% | 8.80% | 14.35% | 27.78% | – | – | – | – | –
– | CC[C@H](O)CC(=O)O [S-3-hydroxypentanoic acid] | 1.03% | 1.90% | 3.38% | 5.27% | 7.94% | 8.85% | 14.23% | 27.46% | – | – | – | – | –
